In PMC9061999, “Application of the Adverse Outcome Pathway Concept to In Vitro Nephrotoxicity Assessment: Kidney Injury due to Receptor-Mediated Endocytosis and Lysosomal Overload as a Case Study” (Frontiers in Toxicology, 2022):

Legend:
NRK-52E cells [1] = experiment: Cathepsin D immunofluorescence (KE2, disruption of lysosomes); assay type: cell-based, rat; details: for MOE, lowest across KEs: in vitro PODs in NRK-52E vs rat plasma concentrations after human equivalent or nephrotoxic doses
Description: (§1) For immunocytochemistry experiments, cells were seeded into 8-well chamber slides (Ibidi) at a density of 140 cells per µL in 300 µL growth medium and were allowed to grow for 48 h (NRK-52E) or 10 d (RPTEC/TERT1) respectively. For treatment, stock solutions (1,000 µM) of compounds dissolved in growth medium were freshly prepared and serial dilutions were made before exposure of cells for 24 h. After treatment, cells were washed twice with 150 µL PBS and fixed with 150 µL 4% paraformaldehyde in 1 x PBS for 10 min at room temperature. After fixation, cells were washed 10 min with 150 µL PBS on an orbital shaker followed by permeabilization with 150 µL 0.2% Triton X-100 in 1 x PBS for 5 min at room temperature on an orbital shaker. The permeabilized cells were washed twice with 1 x PBS (150 µL) for 10 min at room temperature on an orbital shaker and then incubated with 150 µL 5% BSA dissolved in 1 x PBS for 1 h at room temperature to block unspecific binding sites. After blocking, 100 µL primary antibody diluted 1:100 in 1% BSA in 1 x PBS were directly pipetted onto the cells and incubated overnight at 4°C. The following antibodies were employed for NRK-52E cells: Anti-LAMP-1 monoclonal IgG1 kappa mouse antibody (Santa Cruz; sc-20011), anti-Cathepsin D mouse monoclonal IgG2 kappa antibody (Santa Cruz; sc-377124); for RPTEC/TERT1 cells: Anti-LAMP-2 monoclonal mouse antibody (Santa Cruz; sc-18822), anti-Cathepsin D mouse monoclonal IgG2b kappa (Novus Biologicals; NBP1-04278); for both cell lines anti-megalin mouse monoclonal IgG1 antibody (Santa Cruz, sc-515772).
(§2) After incubation with primary antibody, cells were washed three times for 15 min with 0.2% Tween in 1 x PBS (150 µL) on an orbital shaker. Cells were incubated for 1 h at room temperature with 100 µL CFL 488-conjugated mouse IgG kappa binding protein (1:50) (m-IgGκ BP-CFL 488; Santa Cruz, sc-516176). After incubation the cells were washed three times for 15 min with 0.2% Tween in 1 x PBS on an orbital shaker and once with 150 µL sterile water. […] To preserve fluorescence 50–100 µL DAPI mounting medium (Vectashield®; Vectorlab, Biozol) was added to the cells and chamber slides were stored at 4°C in the dark until image acquisition.
(§3) Images were taken with a TCS SP5 II confocal microscope with an HCX PL APO lambda blue 63.0 × 1.40 OIL UV objective (Leica Microsystems, Wetzlar, GER) (n = 10 cells/treatment group). […] Before quantification, images were blinded and randomized. Quantification of fluorescence intensity was performed using NIH Image® software. […] The mean values of the pixel intensities were automatically calculated by the software and imported in Excel for further processing.

NRK-52E cells [2] = experiment: LAMP-1 immunofluorescence (KE1, disturbance of lysosomal function); assay type: cell-based, rat; details: for BMC10, KE1: in vitro POD from KE dose-response, LAMP-1 intensity, NRK-52E, 24 h treatment, n = 3; for MOE, KE1: margin of exposure: BMC10 in NRK-52E vs rat plasma/serum concentration (cmax or css)
Description: as §1, §2, §3

Row | Substance | MOE, lowest across KEs (NRK-52E cells [1]) | BMC10, KE1 (NRK-52E cells [2]) [µM] | MOE, KE1 (NRK-52E cells [2]) | BMC10, KE2 (NRK-52E cells [1]; in vitro POD from KE dose-response, cathepsin D intensity, NRK-52E, 24 h treatment, n = 3) [µM] | MOE, KE2 (NRK-52E cells [1]; margin of exposure: BMC10 in NRK-52E vs rat plasma/serum concentration (cmax or css))
1 | Colistin | 1.8 | 36.2 | 3.5 – 7.1 | – | –
2 | Polymyxin B | 0.8 | 13.7 | 1.9 – 2.0 | 5.8 | 0.8
